Key:
Assay type in all cases: functional, cell-based
BT-549 = experiment: The compound was tested in vitro for cytotoxic activity against BT-549 cell line (human breast carcinoma)
MCF7 = experiment: The compound was tested in vitro for cytotoxic activity against MCF-7 cell line (human breast carcinoma)
[1] = The compound was tested in vitro for cytotoxic activity against UCLA-P3 cell line (human lung adenocarcinoma); conditions: UCLA P-3
786-0 = experiment: The compound was tested in vitro for cytotoxic activity against 786-O cell line (human perirenal carcinoma)
OVCAR-3 = experiment: The compound was tested in vitro for cytotoxic activity against OVCAR-3 cell line (human ovarian carcinoma)
HT-29 = experiment: The compound was tested in vitro for cytotoxic activity against HT-29 cell line (human colon adenocarcinoma)
MOLT-4 = experiment: The compound was tested in vitro for cytotoxic activity against Molt-4 cell line (human T-cell leukemia)
L1210 = experiment: The compound was tested in vitro for cytotoxic activity against L1210 cell line (mouse leukemia)
B16 = experiment: The compound was tested in vitro for cytotoxic activity against B-16 cell line (mouse melanoma)
SK-MEL-28 = experiment: The compound was tested in vitro for cytotoxic activity against SK-MEL 28 cell line (human melanoma)
HL-60 = experiment: The compound was tested in vitro for cytotoxic activity against HL-60 cell line (human promyelomic leukemia)
H322 = experiment: The compound was tested in vitro for cytotoxic activity against H 322 cell line (human lung adenocarcinoma); conditions: NCI-H322
[2] = The compound was tested in vitro for cytotoxic activity against M24-MET cell line (human metastatic melanoma); conditions: M24met
PC-3 = experiment: The compound was tested in vitro for cytotoxic activity against PC-3 cell line (human prostate carcinoma)
SiHa = experiment: The compound was tested in vitro for cytotoxic activity against SIHA cell line (human cervix carcinoma)

SMILES	IC50 (BT-549)	IC50 (MCF7)	IC50 [1]	IC50 (786-0)	IC50 (OVCAR-3)	IC50 (HT-29)	IC50 (MOLT-4)	IC50 (L1210)	IC50 (B16)	IC50 (SK-MEL-28)	IC50 (HL-60)	IC50 (H322)	IC50 [2]	IC50 (PC-3)	IC50 (SiHa)
CC(C)[C@H]1C(=O)OC[C@@H](NC(=O)c2ccc3ccccc3n2)C(=O)N2CCCC[C@H]2C(=O)NCC(=O)N(C)CC(=O)N(C)[C@@H](C(C)C)C(=O)OC[C@@H](NC(=O)c2ccc3ccccc3n2)C(=O)N2CCCC[C@H]2C(=O)NCC(=O)N(C)CC(=O)N1C	0.01 nM	0.04 nM	0.002 nM	0.01 nM	1 nM	0.01 nM	3 nM	0.2 nM	0.06 nM	0.001 nM	0.001 nM	10 nM	0.04 nM	0.001 nM	0.001 nM
CC(C)[C@H]1C(=O)OC[C@@H](NC(=O)c2nc3ccccc3cc2O)C(=O)N2CCCC[C@H]2C(=O)NCC(=O)N(C)CC(=O)N(C)[C@@H](C(C)C)C(=O)OC[C@@H](NC(=O)c2nc3ccccc3cc2O)C(=O)N2CCCC[C@H]2C(=O)NCC(=O)N(C)CC(=O)N1C	1 nM	300 nM	10 nM	8 nM	4 nM	1 nM	0.7 nM	0.02 nM	0.4 nM	1 nM	80 nM	20 nM	0.4 nM	0.2 nM	0.3 nM
